Source: patent US20150031668A1, “CHROMAN DERIVATIVES AS TRPM8 INHIBITORS” (AMGEN INC., priority 2013, published 2015)
Where a name gives a salt, the structure may show the parent alone. Read-outs that look alike come from different tables or passages of the source.

Target: T1, human TRPM8 (Homo sapiens, UniProt Q7Z2W7)
T1 construct: expressed in transfected cells; host or cells: Chinese hamster ovary (CHO) cells, T-REx tetracycline-inducible expression system (Invitrogen); co-transfected with pcDNA3.1 aequorin
Assay: Luminescence readout assay for measuring intracellular calcium (aequorin, CHO cells expressing human TRPM8; icilin, L-menthol or cold activation)
Format: cell-based
Procedure: Luminescence Readout Assay for Measuring Intracellular Calcium
A stable Chinese hamster ovary cell line expressing human TRPM8 was generated using tetracycline inducible T-REx™ expression system from Invitrogen, Inc. (Carlsbad, Calif.). […] Twenty four hours before the assay, cells were seeded in 96-well plates and TRPM8 expression was induced with 0.5 μg/ml tetracycline. On the day of the assay, culture media was removed and cells were incubated with assay buffer
Potential antagonists were added 2.5 min prior to the addition of agonist, 1 μM icilin, 100 μM L-menthol, or 1 min prior to the addition of cold buffer (<10° C.). The luminescence was measured by a CCD camera based FLASH-luminometer built by Amgen, Inc. A cooling device attached to FLASH luminometer was used for cold activation.

[1] = CHO cells expressing human TRPM8, icilin activation (1 μM), aequorin luminescence, read-out: hTRPM8 IC50

T1 sequence (Q7Z2W7 whole entry): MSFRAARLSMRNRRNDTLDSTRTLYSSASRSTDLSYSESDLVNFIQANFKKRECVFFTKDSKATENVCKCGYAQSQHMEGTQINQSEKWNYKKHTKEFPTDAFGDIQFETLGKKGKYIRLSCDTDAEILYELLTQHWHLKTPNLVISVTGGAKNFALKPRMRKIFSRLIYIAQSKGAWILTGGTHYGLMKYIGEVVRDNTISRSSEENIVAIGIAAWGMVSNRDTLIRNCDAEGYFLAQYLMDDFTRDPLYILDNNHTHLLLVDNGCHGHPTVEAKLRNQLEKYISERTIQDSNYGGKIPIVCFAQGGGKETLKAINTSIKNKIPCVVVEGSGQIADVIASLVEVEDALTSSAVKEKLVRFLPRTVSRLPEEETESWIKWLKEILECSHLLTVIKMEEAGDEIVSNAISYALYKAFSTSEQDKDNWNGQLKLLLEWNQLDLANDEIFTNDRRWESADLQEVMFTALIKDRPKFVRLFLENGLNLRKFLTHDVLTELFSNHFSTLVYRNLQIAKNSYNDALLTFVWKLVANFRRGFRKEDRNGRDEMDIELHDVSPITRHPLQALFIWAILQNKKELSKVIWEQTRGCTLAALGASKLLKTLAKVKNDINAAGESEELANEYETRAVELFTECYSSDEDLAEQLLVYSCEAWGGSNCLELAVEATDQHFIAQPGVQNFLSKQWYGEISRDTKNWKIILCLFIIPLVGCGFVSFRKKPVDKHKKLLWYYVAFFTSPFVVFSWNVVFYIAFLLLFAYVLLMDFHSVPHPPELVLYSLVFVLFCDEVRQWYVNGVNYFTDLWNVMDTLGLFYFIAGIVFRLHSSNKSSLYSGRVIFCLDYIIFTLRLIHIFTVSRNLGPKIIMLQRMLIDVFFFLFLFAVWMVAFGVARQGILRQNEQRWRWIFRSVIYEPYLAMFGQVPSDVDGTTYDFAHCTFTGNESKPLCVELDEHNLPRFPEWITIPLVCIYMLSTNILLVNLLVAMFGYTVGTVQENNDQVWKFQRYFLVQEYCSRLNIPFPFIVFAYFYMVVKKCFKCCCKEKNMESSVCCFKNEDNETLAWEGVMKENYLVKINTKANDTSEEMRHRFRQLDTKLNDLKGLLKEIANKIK

Structure (SMILES) | IC50 [1] [nM] | IC50 [nM]
Cn1ccc2cc(C(=O)N[C@]3(c4ccc(C(F)(F)F)cc4)CCOc4cccnc43)ccc21 [Example 42, (S)-1-methyl-N-(4-(4-(trifluoromethyl)phenyl)-3,4-dihydro-2H-pyrano[3,2-b]pyridin-4-yl)-1H-indole-5-carboxamide] | 24 | 
O=C(N[C@]1(c2ccc(OC(F)(F)F)c(F)c2)CCOc2cccnc21)c1ccc(O)cn1 [Example 51, (S)-N-(4-(3-fluoro-4-(trifluoromethoxy)phenyl)-3,4-dihydro-2H-pyrano[3,2-b]pyridin-4-yl)-5-hydroxypicolinamide] | 5 | 
Cn1ncc2ccc(C(=O)N[C@]3(c4ccc(C(F)(F)F)cc4)CCOc4cccnc43)cc21 [Example 38, (S)-1-methyl-N-(4-(4-(trifluoromethyl)phenyl)-3,4-dihydro-2H-pyrano[3,2-b]pyridin-4-yl)-1H-indazole-6-carboxamide] | 20 | 
O=C1CCN(C(=O)N[C@]2(c3ccc(OC(F)(F)F)c(F)c3)CCOc3cccnc32)CC1 [Example 103, (S)-N-(4-(3-fluoro-4-(trifluoromethoxy)phenyl)-3,4-dihydro-2H-pyrano[3,2-b]pyridin-4-yl)-4-oxopiperidine-1-carboxamide] |  | 278
CC(C)c1cc(C(=O)N[C@]2(c3ccc(OC(F)(F)F)c(F)c3)CCOc3cccnc32)ccc1C(=O)O [Example 292, (S)-4-((4-(3-fluoro-4-(trifluoromethoxy)phenyl)-3,4-dihydro-2H-pyrano[3,2-b]pyridin-4-yl)carbamoyl)-2-isopropylbenzoic acid] | 14 | 
Cn1c(C(=O)O)ccc1C(=O)N[C@]1(c2ccc(OC(F)(F)F)c(F)c2)CCOc2cccnc21 [Example 324, (S)-5-((4-(3-fluoro-4-(trifluoro-methoxy)phenyl)-3,4-dihydro-2H-pyrano[3,2-b]pyridin-4-yl)carbamoyl)-1-methyl-1H-pyrrole-2-carboxylic acid] | 103 | 
CNc1cc(C(=O)N[C@]2(c3ccc(OC(F)(F)F)c(F)c3)CCOc3cccnc32)ccc1C(=O)O [Example 294, (S)-4-((4-(3-fluoro-4-(trifluoromethoxy)phenyl)-3,4-dihydro-2H-pyrano[3,2-b]pyridin-4-yl)carbamoyl)-2-(methylamino)benzoic acid] | 3 | 
Cn1nccc1C(=O)N[C@]1(c2ccc(OC(F)(F)F)cc2)CCOc2cccnc21 [Example 228, (S)-1-methyl-N-(4-(4-(trifluoromethoxy)phenyl)-3,4-dihydro-2H-pyrano[3,2-b]pyridin-4-yl)-lH-pyrazole-5-carboxamide formate_] | 105 | 
CC(O)c1ccc(C(=O)N[C@]2(c3ccc(OC(F)(F)F)c(F)c3)CCOc3cccnc32)cc1 (mixture of isomers) [Example 157, N—((S)-4-(3-fluoro-4-(trifluoromethoxy)phenyl)-3,4-dihydro-2H-pyrano[3,2-b]pyridin-4-yl)-4-((R)-1-hydroxyethyl)benzamide and N—((S)-4-(3-fluoro-4-(trifluoromethoxy)phenyl)-3,4-dihydro-2H-pyrano[3,2-b]pyridin-4-yl)-4-((S)-1-hydroxyethyl)benzamide (1:1)] | 12 | 
O=C(N[C@]1(c2ccc(OC(F)(F)F)c(F)c2)CC(=O)c2cccnc21)c1ccc(=O)[nH]c1 [Example 165, (S)-N-(7-(3-fluoro-4-(trifluoromethoxy)phenyl)-5-oxo-6,7-dihydro-5H-cyclopenta[b]pyridin-7-yl)-6-oxo-1,6-dihydropyridine-3-carboxamide] | 531 | 
O=C1CCc2cc(C(=O)N[C@]3(c4ccc(OC(F)(F)F)c(F)c4)CCOc4cccnc43)ccc2N1 [Example 54, (S)-N-(4-(3-fluoro-4-(trifluoromethoxy)phenyl)-3,4-dihydro-2H-pyrano[3,2-b]pyridin-4-yl)-2-oxo-1,2,3,4-tetrahydroquinoline-6-carboxamide] | 11 | 
CCOC(=O)c1ccc(C(=O)N[C@]2(c3ccc(OC(F)(F)F)c(F)c3)CCOc3cccnc32)nc1C [Example 169, (S)-ethyl 6-((4-(3-fluoro-4-(trifluoromethoxy)phenyl)-3,4-dihydro-2H-pyrano[3,2-b]pyridin-4-yl)carbamoyl)-2-methylnicotinate] | 32 | 
COc1ccc(C(=O)N[C@]2(c3ccc(C(F)(F)F)cc3)CCOc3cccnc32)nn1 [Example 47, (S)-6-methoxy-N-(4-(4-(trifluoromethyl)phenyl)-3,4-dihydro-2H-pyrano[3,2-b]pyridin-4-yl)pyridazine-3-carboxamide] | 82 | 
COc1cccc(-c2ccc([C@@]3(NC(=O)c4ccc(F)cc4)CCOc4cccnc43)cc2)c1O [Example 135, (S)-4-fluoro-N-(4-(2′-hydroxy-3′-methoxy-[1,1′-biphenyl]-4-yl)-3,4-dihydro-2H-pyrano[3,2-b]pyridin-4-yl)benzamide] | 113 | 
COC(=O)c1ccc(C(=O)N[C@]2(c3ccc(C(F)(F)F)cc3)CCOc3cccnc32)nc1 [Example 175, (S)-methyl 6-((4-(4-(trifluoromethyl)phenyl)-3,4-dihydro-2H-pyrano[3,2-b]pyridin-4-yl)carbamoyl) nicotinate] | 43 | 
O=C(NC1(c2ccccc2)CCOc2cccnc21)c1ccc2[nH]c(=O)oc2c1 (stereo not drawn) [Example 26, 2-oxo-N-(4-phenyl-3,4-dihydro-2H-pyrano[3,2-b]pyridin-4-yl)-2,3-dihydrobenzo[d]oxazole-6-carboxamide] | 14 | 
O=C(N[C@]1(c2ccc(C(F)(F)F)cc2)CCOc2cccnc21)c1cc(F)c(O)c(F)c1 [Example 205, (S)-3,5-difluoro-4-hydroxy-N-(4-(4-(trifluoromethyl)phenyl)-3,4-dihydro-2H-pyrano[3,2-b]pyridin-4-yl) benzamide] | 4 | 
O=C(N[C@]1(c2ccc(OC(F)(F)F)c(F)c2)CCOc2cccnc21)c1ccc(F)cn1 [Example 55, (S)-5-fluoro-N-(4-(3-fluoro-4-(trifluoromethoxy)phenyl)-3,4-dihydro-2H-pyrano[3,2-b]pyridin-4-yl)picolinamide] | 22 | 
O=C(N[C@]1(c2ccc(OC(F)(F)F)cc2)CCOc2cccnc21)c1ccc2nccn2c1 [Example 240, (S)-N-(4-(4-(trifluoromethoxy)phenyl)-3,4-dihydro-2H-pyrano[3,2-b]pyridin-4-yl)imidazo[1,2-a] pyridine-6-carboxamide formate] | 40.6 | 
O=C(N[C@]1(c2ccc3ccccc3c2)CCOc2cccnc21)c1ccc(=O)[nH]c1 [Example 81, (S)-N-(4-(naphthalen-2-yl)-3,4-dihydro-2H-pyrano[3,2-b]pyridin-4-yl)-6-oxo-1,6-dihydropyridine-3-carboxamide] | 124 | 
O=C(N[C@]1(c2ccc(OC(F)(F)F)cc2)CCOc2cccnc21)c1ccc(-c2cnco2)cc1 [Example 273, (S)-4-(oxazol-5-yl)-N-(4-(4-(trifluoromethoxy)phenyl)-3,4-dihydro-2H-pyrano[3,2-b]pyridin-4-yl)benzamide formate] | 19 | 
O=C(N[C@]1(c2ccc(OC(F)(F)F)cc2)CCOc2cccnc21)c1ccc2c(=O)[nH]ccc2c1 [Example 223, (S)-1-oxo-N-(4-(4-(trifluoromethoxy)phenyl)-3,4-dihydro-2H-pyrano[3,2-b]pyridin-4-yl)-1,2-dihydroisoquinoline-6-carboxamide formate] | 10 | 
O=C(Nc1cccc(C(=O)O)c1)N[C@]1(c2ccc(OC(F)(F)F)c(F)c2)CCOc2cccnc21 [Example 107, (S)-3-(3-(4-(3-fluoro-4-(trifluoromethoxy)phenyl)-3,4-dihydro-2H-pyrano[3,2-b]pyridin-4-yl)ureido)benzoic acid] | 150 | 
O=C(N[C@]1(c2ccc(OC(F)(F)F)c(F)c2)CCOc2cccnc21)N1CCC(F)(F)CC1 [Example 100] | 187 | 
O=C(O)c1ccc(C(=O)N[C@]2(c3ccc(OC(F)(F)F)cc3F)CCOc3cccnc32)nc1 [Example 312, (S)-6-((4-(2-fluoro-4-(trifluoro-methoxy)phenyl)-3,4-dihydro-2H-pyrano[3,2-b]pyridin-4-yl)carbamoyl) nicotinic acid] | 104 | 
O=C(Nc1ccc(-c2noc(=O)[nH]2)nc1)N[C@]1(c2ccc(OC(F)(F)F)c(F)c2)CCOc2cccnc21 [Example 109, (S)-1-(4-(3-fluoro-4-(trifluoromethoxy)phenyl)-3,4-dihydro-2H-pyrano[3,2-b]pyridin-4-yl)-3-(6-(5-oxo-4,5-dihydro-1,2,4-oxadiazol-3-yl)pyridin-3-yl)urea] | 3060 | 
O=C(N[C@]1(c2ccc(Cl)cc2)CCOc2cccnc21)c1ccccc1 (single isomer, unassigned) [Example 14] | 91 | 
O=C(N[C@]1(c2ccc(OC(F)(F)F)c(F)c2)CCOc2cccnc21)N1CCC1 [Example 105, (S)-N-(4-(3-fluoro-4-(trifluoromethoxy)phenyl)-3,4-dihydro-2H-pyrano[3,2-b]pyridin-4-yl)azetidine-1-carboxamide] | 404 | 
COC(=O)c1cc2ccc(C(=O)N[C@]3(c4ccc(OC(F)(F)F)c(F)c4)CCOc4cccnc43)cc2[nH]1 [Example 209, (S)-methyl 6-((4-(3-fluoro-4-(trifluoromethoxy)phenyl)-3,4-dihydro-2H-pyrano[3,2-b]pyridin-4-yl)carbamoyl)-1H-indole-2-carboxylate] | 45 | 
O=C(N[C@]1(c2ccc(OC(F)(F)F)cc2)CCOc2cccnc21)c1ccc2nsnc2c1 [Example 269, (S)-N-(4-(4-(trifluoromethoxy)phenyl)-3,4-dihydro-2H-pyrano[3,2-b]pyridin-4-yl) benzo[c][1,2,5] thiadiazole-5-carboxamide formate] | 24 | 
